According to patent US20200281873A1, “Adamantane or Bicyclic Monoterpenoid Derivatives for Use in the Treatment of Leishmaniasis” (Commissariat a l'Energie Atomique et aux Energies …, priority 2017, published 2020):
Where two headings read alike, the source gives them in different places.

Assays:
RAW 264.7 macrophages = test: Cytotoxicity on RAW 264.7 macrophages; assay type: cell-based, Mouse; settings: Table I
[1] = system: L. infantum intramacrophagic amastigotes; test: L. donovani infantum/RAW 264.7 macrophage model (intramacrophagic amastigotes, SYBR Green I); assay type: cell-based, Leishmania donovani infantum
Experimental: Protocol for Evaluation on the L. donovani infantum/RAW 264.7 Macrophage Model (Intramacrophagic Amastigotes)
Mouse macrophage cells RAW 264.7 (ATCC) were seeded into a 96-well microplate and maintained in DMEM medium (Applied Biosystems, France) supplemented with 10% heat-inactivated fetal bovine serum in a 5% CO2 incubator at 37° C. for 24 h. Then, the medium was replaced with 100 μL fresh medium containing a suspension of 10^5 L. infantum amastigotes and the incubation time was 16 h. Then, extracellular parasites were eliminated from the medium and 100 μL fresh medium containing compound in various concentrations were added for a 48 h-incubation. Parasite growth was determined by using SYBR® Green I (Life technology, Fisher Scientific, France), a dye with marked fluorescence enhancement upon contact with DNA. The cell lysis suspension was diluted 1:1 in lysis buffer (10 mM NaCl, 1 mM Tris HCl pH8, 2.5 mM EDTA pH 8, 0.05% SDS, 0.01 mg/mL proteinase K and 10×SYBR Green I). Incorporation of SYBR Green I in DNA amplification was measured using the Master epRealplex cycler® (Eppendorf, France) according to the following program to increase the SYBR green incorporation: 90° C. for 1 min, decrease in temperature from 90° C. to 10° C. for 5 min with reading the fluorescence at 10° C. for 1 min and a new reading at 10° C. for 2 min. The EC50 as the concentration inhibiting the parasite growth by 50% was calculated by nonlinear regression using icestimator website 1.2 version: http://www.antimalarial-icestimator.net/MethodIntro.htm.

[2] = system: L. infantum intramacrophagic amastigotes; test: as above; assay type: cell-based, Leishmania donovani infantum; settings: Table I; ratio
[3] = system: Leishmania infantum axenic amastigotes; test: Evaluation on Leishmania donovani infantum axenic amastigotes (SYBR Green I); assay type: cell-based
Experimental: Protocol for Evaluation on Leishmania donovani infantum Axenic Amastigotes
Amastigote forms of the parasite were suspended to yield 10^7 parasitic cells mL^−1. The maximum final compound concentration used was 100 μM. Triplicates were used for each concentration. Cultures were incubated at 37° C. for 72 h in the dark and under a 5% CO2 atmosphere, then the viability of the amastigotes was assessed using the SYBR® Green I (Invitrogen, France) incorporation method. Parasite growth was determined by using SYBR® Green I, a dye with marked fluorescence enhancement upon contact with parasite DNA. Parasites were lysed and quantified by Direct PCR-Cell Genotyping without DNA isolation protocol (Euromedex, France). 10 μL of lysed parasite solution from each well was added to 40 μL of PCR-Cell reagent containing the SYBR® green I in a qPCR plate of 96 wells, and the contents were mixed. Fluorescence was measured with Mastercycler® ep realplex (Eppendorf, France). Measured fluorescence was compared to that from the range obtained with different parasite densities. The antileishmanial activity was expressed as IC50 in μM (concentration of drug inhibiting 50% of the parasite growth, comparatively to the controls treated with the excipient only).

[4] = Cytotoxicity on RAW 264.7 macrophages; assay type: cell-based, Mouse; settings: mouse, RAW 264.7 macrophages; Table I
[5] = system: L. donovani (MHOM/ET/67/HU3) amastigotes; test: In vivo antileishmanial evaluation, Leishmania donovani/Balb/c mouse model (liver parasite load); settings: for % reduction of parasite burden in the liver / LDU ± SD (parasites in the liver): Balb/c mice
Experimental: Compounds VP343, VP370 were evaluated in vivo for their antileishmanial properties by oral and intravenous route on the Leishmania donovani/Balb/c mouse model, comparatively to miltefosine, used as reference drug, according to a previously described protocol (Balaraman et al., 2015). Six- to eight-week-old Balb/c mice (Élevages Janvier, Le Genest Saint Isle, France) were infected intravenously on day 1 with 10^7 L. donovani (MHOM/ET/67/HU3) amastigotes derived from the spleen of hamsters and randomly sorted into four groups of 10 mice and one group of 12 mice as infected controls but not treated. The treatment administered orally or intravenously, started one week post-infection, on day 8, and continued for 5 consecutive days. At day 15, all groups of mice were autopsied and livers and spleens were weighed. Parasite load in the liver was determined by counting the number of amastigotes/500 liver cells in Giemsa-stained impression smears prepared from the liver and applying Stauber's formula. Three researchers counted the slides independently and the results are expressed as the mean values±SD. The parasite burden of treated groups and controls were compared using Student's t-test or the Kruskal-Wallis nonparametric analysis of variance test for comparing two groups. Significance was established for a P value<0.05.

[6] = In vivo toxicity evaluation by oral route in mice (serum biochemical parameters); set-up: species or system Balb/C female mice; Serum urea: unit not given here
Experimental: Biochemical parameters relative to VP343 and VP370 toxicity in Balb/C female mice (18-20 g) after a single treatment by oral route at 100 mg/kg under a 0.1 mL volume (=5 mL/kg). Serum were collected one week after the treatment. Excipient: Methylcellulose 1%+Tween 0.1%.
Dosages were performed with a Cobas 800 (Roche/Hitachi) apparatus.

[7] = Leishmania infantum, Macrophage, Table II, 3 different experiments, SYBR Green I method, read-out: IC50 intramacrophagic
[8] = Leishmania infantum, Table II, 3 different experiments, SYBR Green I method, read-out: IC50 axenic
[9] = Leishmania infantum, RAW264.7, Table I, RAW 264.7 macrophages, 48 h incubation, read-out: Intramacrophagic amastigotes IC50
[10] = Leishmania infantum, Table I, 72 h incubation, read-out: Axenic amastigotes IC50
[11] = intravenous route, 10 mg/kg/day × 5
[12] = single oral treatment 100 mg/kg, serum one week after treatment

| IC50 [1, 7] [nM] | IC50 [3, 8] [nM] | Structure (SMILES) | also measured |
| --- | --- | --- | --- |
| 210 | 4530 | COc1ccc(Br)cc1/C=N/C12CC3CC(CC(C3)C1)C2 [VP300A] |  |
| 290 | 8900 | C[C@@H]1[C@@H](NCc2ccc(-n3ccnc3)cc2)C[C@H]2C[C@@H]1C2(C)C [VP393] |  |
| 250 | 4860 | COc1ccc(Br)cc1CN[C@@H]1C[C@@H]2C[C@H]([C@H]1C)C2(C)C [VP330] |  |
| 170 | 58800 | C[C@@H]1[C@@H](NCc2cc(F)ccc2F)C[C@H]2C[C@@H]1C2(C)C [VP381] |  |
| 60 | < 500 | COc1ccc(Br)cc1CN[C@@H]1C[C@H]2CC[C@]1(C)C2(C)C [VP305] |  |
| 190 | 30500 | C[C@@H]1[C@@H](NCc2cccc(Cl)c2)C[C@H]2C[C@@H]1C2(C)C [VP371] |  |
| 110 | 15400 | COc1ccc(OC)c(CN[C@H]2C[C@H]3C[C@@H]([C@@H]2C)C3(C)C)c1 [VP369] |  |
| 420 | 4100 | C[C@@H]1[C@@H](NCc2ccoc2)C[C@H]2C[C@@H]1C2(C)C [VP354] |  |
| 390 | 3700 | C[C@@H]1[C@@H](NCc2cccc(Br)c2)C[C@H]2C[C@@H]1C2(C)C [VP361] |  |
| 190 | 9990 | COc1ccccc1CN[C@H]1C[C@H]2C[C@@H]([C@@H]1C)C2(C)C [VP363] |  |
| 270 | 21600 | C[C@@H]1[C@@H](NCc2ccc(I)cc2)C[C@H]2C[C@@H]1C2(C)C [VP390] |  |

The remaining lines, values behind:

| Structure (SMILES) | IC50 [1, 7] [nM] | IC50 [3, 8] [nM] | also measured |
| --- | --- | --- | --- |
| C[C@@H]1[C@H](O)[C@@H](C)/C=C/C=C/C=C/C=C/C=C/C=C/C=C/[C@H](O[C@@H]2O[C@H](C)[C@@H](O)[C@H](N)[C@@H]2O)C[C@@H]2O[C@](O)(C[C@@H](O)C[C@@H](O)[C@H](O)CC[C@@H](O)C[C@@H](O)CC(=O)O[C@H]1C)C[C@H](O)[C@H]2C(=O)O [Amphotericin B, reference compound] |  |  | CC50 (RAW 264.7 macrophages): 4500 ± 400 nM; IC50 ([1]; Table I, RAW 264.7 macrophages, 48 h incubation, read-out: Intramacrophagic amastigotes IC50): 47 ± 5 nM; Selectivity IC50 (Axenic amastigotes)/IC50 (Intramacrophagic amastigotes) [2]: <1; IC50 ([3]; Table I, 72 h incubation, read-out: Axenic amastigotes IC50): 31 ± 2 nM |
| C[C@@H]1[C@@H](NCc2c[nH]c3ccccc23)C[C@H]2C[C@@H]1C2(C)C [VP359] | 250 | > 100000 |  |
| COc1ccc(Br)cc1CNC12CC3CC(CC(C3)C1)C2 [ABMA] | 7100 | > 100000 | CC50 [4]: 25300 ± 2400 nM; IC50 [1, 9]: 7100 ± 1700 nM; Selectivity IC50 (Axenic amastigotes)/IC50 (Intramacrophagic amastigotes) [2]: >14; IC50 [3, 10]: > 100000 nM |
| C[C@@H]1[C@@H](NCc2ncc[nH]2)C[C@H]2C[C@@H]1C2(C)C [VP358] | 570 | 13000 |  |
| Cc1ccc(-c2ccc(CN[C@H]3C[C@H]4C[C@@H]([C@@H]3C)C4(C)C)cc2)cc1 [VP396] | 210 | 5560 |  |
| CCCCCCCCCCCCCCCCOP(=O)([O-])OCC[N+](C)(C)C [Miltefosine, reference compound] |  |  | CC50 [4]: 12500 ± 1300 nM; IC50 [1, 9]: 850 ± 200 nM; Selectivity IC50 (Axenic amastigotes)/IC50 (Intramacrophagic amastigotes) [2]: 1.4; % reduction of parasite burden in the liver [5, 11]: 65.9%; LDU ± SD (parasites in the liver) [5, 11]: 0.36 ± 0.08 ×10^8; % reduction of parasite burden in the liver ([5]; oral route, 10 mg/kg/day × 5): 84.6%; LDU ± SD (parasites in the liver) ([5]; oral route, 10 mg/kg/day × 5, autopsy day 15): 0.19 ± 0.09 ×10^9; IC50 [3, 10]: 1200 ± 500 nM |
| C[C@@H]1[C@@H](NCc2ccc3c(c2)Cc2ccccc2-3)C[C@H]2C[C@@H]1C2(C)C [VP397] | 500 | 9720 |  |
| Cc1ccccc1CN[C@H]1C[C@H]2C[C@@H]([C@@H]1C)C2(C)C [VP391] | 210 | 7550 |  |
| COc1cccc(OC)c1CN[C@H]1C[C@H]2C[C@@H]([C@@H]1C)C2(C)C [VP370] | 40 | 36300 | % reduction of parasite burden in the liver ([5]; oral route, 20 mg/kg/day × 5): 62.7%; LDU ± SD (parasites in the liver) ([5]; oral route, 20 mg/kg/day × 5, autopsy day 15): 0.46 ± 0.12 ×10^9; Activity in vivo by oral route (in words) ([5]; VP343 and VP370 at 20 mg/kg/day×5, VP343 also at 10 mg/kg/day×5, Tukey's multiple comparisons test): significantly active; Serum AST ± SD [6, 12]: 330 ± 68 U/L; Serum AST ± SD (second AST column) [6, 12]: 197 ± 41 U/L; Serum creatinin [6, 12]: <18 µM; Serum urea [6, 12]: 7.9 ± 1.5; Toxicity after single oral treatment (in words) ([6]; single treatment by oral route at 100 mg/kg): did not show toxicity |
